In general, inhibition refers to the share of the control response that was lost under treatment. What is called IC50 is the concentration that inhibits the measured activity by half.

The source made the active and inactive calls.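 Rule for the calls: active = mean IC50 at or below a set limit; inactive = the rest.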

This is an account of results in PubChem BioAssay AID489034 (Sanford-Burnham Center for Chemical Genomics, 2010).

A short description of assay [1]: inhibitors of antigen receptor-driven NF-kB, dose response, 697 B cells, PMA/ionomycin, luminescence (AID 489034). The note with it: 697 B-cell NF-kB luciferase reporter, PMA/ionomycin, 16 h; at 80 µM (top of the series). A general note: A reporter such as luciferase makes a cellular process visible.
For assay [2], the system named is 697 B-cell NF-kB luciferase reporter, PMA/ionomycin, 16 h. The assay is described as above.

In the case of `N=c1ccn2c(n1)O[C@H]1[C@@H](CO)[C@H](O)O[C@H]12`, the inhibition in assay [1] is 48.5%.
As for `Cc1sc2ncnc(N3CCN(CCOc4ccc(Cl)cc4)CC3)c2c1C`, the IC50 in assay [2] is > 80000 nM (inactive).
`CCc1cc2c(Sc3nc4ccccc4s3)ncnc2s1`: the IC50 in assay [2] was below 160 nM.
Turning to `C=C1C(O)[C@@H]2O[C@]3(CC[C@H](/C=C/C(C)[C@@H]4CC(C)=CC5(O[C@H](C[C@@](C)(O)C(=O)O)CCC5O)O4)O3)CC[C@H]2O[C@@H]1C(O)CC(C)[C@H]1OC2(CCCCO2)CCC1C` (some centres not stated), the IC50 in assay [2] is below 160 nM.
Same read-out and setting: in the case of `CCCCCCn1c2c(c(=N)c3c1CCC3)CCC2` it was > 80000 nM (inactive).
On the same count and under the same terms, in the case of `COc1cc(SC)ccc1C(=O)Nc1nc2ccccc2[nH]1` it was below 160 nM; in that of `N#CC(c1cccc(Cl)c1)c1ccc2c(C(F)(F)F)cc(C(F)(F)F)nc2n1` (configuration not stated), > 80000 nM (inactive).
In the case of `COc1cc(/C=N/NC(=S)Nc2cccc(C(=O)O)c2)ccc1O`, the IC50 in assay [2] is 15300 nM.
With `CC1CCN(c2nc3ccc(C(=O)O)cc3s2)CC1`, the IC50 in assay [2] is 1330 nM.
In the case of `COc1cccc(NC(=O)Nc2cccc(C(=O)O)c2)c1`, in assay [2], the IC50 was 1620 nM.
`CCOc1ccc(-c2cc(CCCC(=O)Nc3cccc(OC)c3)no2)cc1`: in assay [2], the half-inhibitory concentration (IC50) is 11300 nM.
Same read-out and setting: in the case of `CCCCCCCCCn1ccc(=N)cc1` it was 46200 nM (inactive); in that of `Nc1nc(Cl)nc2c1ncn2C1CC(O)C(CO)O1` (configuration not stated), > 80000 nM (inactive); in that of `O=S(=O)(NCC1CCCO1)c1ccc(-c2ccc(S(=O)(=O)NCC3CCCO3)cc2)cc1` (configuration not stated), > 80000 nM (inactive).
Still for that read-out and setting: in the case of `CCC(C)(C)c1ccc(OCCCC[n+]2ccc(C)cc2)c(C(C)(C)CC)c1` it was 22300 nM (inactive).
As to `Cn1nccc1C(=O)NC1CCCc2c1cnn2-c1ccc(F)cc1F` (configuration not stated), in assay [2], the IC50 is > 80000 nM (inactive).
With `CCCCCn1c(=O)[nH]c2cc(C(=O)N3CCN(Cc4ccc5c(c4)OCO5)CC3)ccc2c1=O`, in assay [2], the IC50 was > 80000 nM (inactive).
As for `N#Cc1c(NC(=O)CSc2ncn[nH]2)sc2c1CCCCC2`, the IC50 in assay [2] was 283 nM.
Regarding `COC(=O)CCn1nnc(-c2ccc(C(C)C)cc2)n1`, in assay [2], the IC50 is below 160 nM.
Consider `Nc1nc(Cl)nc2c1ncn2[C@H]1C[C@H](O)[C@@H](CO)O1`, for which the IC50 in assay [2] is 5060 nM.
The same measure, in the same setting: in the case of `Cc1ccc(Cn2ccsc2=NC(=O)CCl)cc1` it was 489 nM; in that of `O=C1/C(=C/c2ccccc2)C[C@@]2(O)[C@H]3Cc4ccc(O)c5c4[C@@]2(CCN3CC2CC2)C1O5` (some centres not stated), 6200 nM.
The same measure, in the same setting: the result for `CCCCCCn1ccc(=N)cc1` reads > 80000 nM (inactive); that for `CN(C)c1cc[n+](CC(=O)c2ccc(-c3ccccc3)cc2)cc1`, 47400 nM (inactive).
Still for that read-out and setting: in the case of `CCn1c(C)cc(C(=O)COC(=O)c2ccccc2[N+](=O)[O-])c1C` it was below 160 nM; in that of `CC(=O)OC(C)(C)/C=C/C(=O)[C@](C)(O)C1[C@H](O)C[C@@]2(C)C3CC=C4C(C[C@H](O)C(=O)C4(C)C)[C@]3(C)C(=O)C[C@]12C` (some centres not stated), 7020 nM.
For `O=C(CCl)N=c1sccn1Cc1ccc(Cl)cc1Cl`, the IC50 in assay [2] was below 160 nM.
Same read-out and setting: in the case of `C#CC(=O)N(c1ccc(OC)c(OC)c1)C(C(=O)NC1CCCC1)c1cccs1` (configuration not stated) it was 200 nM; in that of `COc1cccc2c1C(CO)N1C(C#N)C3CC(C(=O)O)C(C1C2)N3C` (configuration not stated), 253 nM; in that of `CC(=O)OC[C@]12CCC(C)=C[C@H]1O[C@@H]1[C@H](O)[C@@H](OC(C)=O)[C@@]2(C)[C@]12CO2`, below 160 nM.
Same read-out and setting: in the case of `Cn1nc(C(C)(C)C)cc1C(=O)NCc1ccc(N2CCCC2=O)cc1` it was > 80000 nM (inactive).
Still for that read-out and setting: in the case of `Cc1cc(CSc2ccccc2)ccc1NC(=O)c1ccc(CN2CCOCC2)cc1` it was > 80000 nM (inactive); in that of `COc1ccc(CCNc2c(C)c(C)nc3ncnn23)cc1`, > 80000 nM (inactive).
Take `COc1ccc(-c2c[n+]3c(n2-c2ccc(C)cc2)CCCCC3)cc1`: the IC50 in assay [2] was > 80000 nM (inactive).
Regarding `O=C(NCCNCCO)C1(C(F)(F)F)C/C(=C\CCO)CCCO1` (configuration not stated), the IC50 in assay [2] was > 80000 nM (inactive).
On the same count and under the same terms, in the case of `CC(C)c1ccc(-c2nnn(CCC(=O)O)n2)cc1` it was 202 nM; in that of `CCCCCc1ccc(OCCCC[n+]2cccc(C)c2)c(CCCCC)c1`, > 80000 nM (inactive); in that of `N#Cc1c(NC(=O)CSc2ncn[nH]2)sc2c1CCCC2`, 300 nM.
On the same count and under the same terms, in the case of `Cc1cc(Cl)c(S(=O)(=O)N2CCCCCC2)cc1OCC(=O)NC1CCCCC1` it was > 80000 nM (inactive); in that of `CN(C)c1ccc(-c2n(C)c3ccccc3[n+]2C)cc1`, > 80000 nM (inactive).
In the case of `C=C1C(=O)O[C@@H]2C[C@@H](C)[C@@H]3C=CC(=O)[C@@]3(C)[C@@H](OC(=O)CC(=O)O[C@H]3[C@@H]4C(=C)C(=O)O[C@@H]4C[C@@H](C)[C@@H]4C=CC(=O)[C@]43C)[C@H]12`, in assay [2], the IC50 was 377 nM.
On the same count and under the same terms, in the case of `Cc1ccc(C(=O)CN2C(=O)c3ccccc3S2(=O)=O)cc1` it was 1330 nM; in that of `Cc1cc(NNC(=O)Nc2cccc(Cl)c2)nc2c1c(C)nn2C`, > 80000 nM (inactive); in that of `O=C(O)CSCC(=O)Nc1ccc(C2CCCCC2)cc1`, 776 nM.
Same read-out and setting: in the case of `Cc1nn(C(C)(C)C)c(C)c1/C=N/OC(=O)Nc1ccc(Cl)cc1` it was below 160 nM; in that of `COc1cc(NC(C)CCCN)c2ncccc2c1` (configuration not stated), > 80000 nM (inactive); in that of `CC(C)(O)c1[nH]c2ccc(C#N)cc2c1C(C)(C)O`, > 80000 nM (inactive).
The same measure, in the same setting: the result for `O=C(NCCc1ccccc1F)c1ccc2c(c1)OCCO2` reads 675 nM.
In the case of `O=C(Nc1ccc([N+](=O)[O-])cc1)C(=O)Nc1cccc(C(=O)O)c1`, the IC50 in assay [2] was 946 nM.
On the same count and under the same terms, the result for `COc1cc2c(cc1OC)[C@@H]1C(=O)c3ccc4c(c3O[C@@H]1CO2)C[C@H](C(C)C)O4` reads > 80000 nM (inactive); that for `Nc1nc(F)nc2c1ncn2[C@@H]1O[C@H](CO)[C@@H](O)[C@H]1O`, 1370 nM; that for `CC1CCCN(c2ccc([N+](=O)[O-])cc2C(=O)c2ccccc2)C1` (configuration not stated), > 80000 nM (inactive).
On the same count and under the same terms, in the case of `O=C(c1ccc(Br)cc1)c1cc([N+](=O)[O-])ccc1N1CCCCC1` it was > 80000 nM (inactive); in that of `COC(=O)Cc1ccc(NC(=O)c2ccc(C(C)(C)C)cc2)cc1`, below 160 nM.
Still for that read-out and setting: the result for `CC(=O)c1cn(Cc2ccccc2C#N)c2ccccc12` reads > 80000 nM (inactive); that for `CN(C(=O)OC(C)(C)C)c1ccc(-c2nc3ccccc3s2)cc1`, below 160 nM; that for `COc1ccc(C[C@H]2NC[C@H](O)[C@H]2OC(C)=O)cc1`, below 160 nM.
As to `CCN1/C(=C/c2ccc3cc(C)ccc3[n+]2CC)Sc2ccccc21`, the IC50 in assay [2] is > 80000 nM (inactive).
Regarding `CCN1/C(=C\c2ccc3ccccc3[n+]2CC)Sc2cc(C)ccc21`, the IC50 in assay [2] was > 80000 nM (inactive).
The same measure, in the same setting: in the case of `CC[n+]1c(C=C2C=C(C)OC(C)=C2)sc2ccccc21` it was > 80000 nM (inactive).
The same measure, in the same setting: the result for `N=c1c2c(-c3ccccc3)c(-c3ccccc3)n(Cc3ccccc3)c2ncn1CCCn1ccnc1` reads 32200 nM (inactive).
For `COc1ccc(CNc2ncc(-c3ccc(F)cc3)n2C)c2ccccc12`, the IC50 in assay [2] is 1570 nM.
On the same count and under the same terms, in the case of `COc1cccc2c1C(=O)c1c(O)c3c(c(O)c1C2=O)C[C@@](O)(C(=O)CO)C[C@@H]3O[C@H]1C[C@H](N)[C@H](O)[C@H](C)O1` it was > 80000 nM (inactive); in that of `COc1ccc(C(=O)Nc2nc3ccccc3s2)c(OC)c1`, 275 nM; in that of `Cn1nc(CC(=O)Nc2ccc3c(c2)OCCO3)c2ccccc2c1=O`, 68700 nM (inactive).
The same measure, in the same setting: in the case of `CCCCCNC(=O)c1ccc2c(=O)n(CC3CCCO3)c(=O)[nH]c2c1` (configuration not stated) it was > 80000 nM (inactive); in that of `CCOc1ccc(-n2c(-c3ccc(OC)cc3)c[n+]3c2CCCCC3)cc1`, > 80000 nM (inactive); in that of `CCn1c(C)nc2cc(-c3nc4n(n3)Cc3ccccc3-4)ccc21`, 198 nM.
The same measure, in the same setting: the result for `C#CC(=O)N(c1ccc(OC)cc1OC)C(C(=O)NC1CCCC1)c1cccs1` (configuration not stated) reads 252 nM.
Consider `N=c1c2c(n(Cc3ccc(Br)cc3)c3c1CCC3)CCCC2`, for which, in assay [1], the inhibition is 60.6% (inactive).
As to `O=C(CN1C(=O)c2ccccc2S1(=O)=O)c1ccc2c(c1)OCCO2`, in assay [2], the IC50 was below 160 nM.
Same read-out and setting: the result for `O=C(Nc1ccc(Cl)cc1)Nc1cccc(C(=O)O)c1` reads 2220 nM; that for `CCCCCCCCNc1ncnc2ccccc12`, > 80000 nM (inactive).
On the same count and under the same terms, the result for `O=C(/C=C/c1ccccc1)Nc1cccc(C(=O)O)c1` reads 620 nM; that for `Cn1nc(CC(=O)Nc2ccc3c(c2)CCC3)c2ccccc2c1=O`, > 80000 nM (inactive).
For `COc1ccc(/C=C/c2cc(-c3ccc(C)cc3)o[n+]2C)cc1`, the IC50 in assay [2] was 5740 nM.
The same measure, in the same setting: in the case of `COc1ccc(C(=O)CN2C(=O)c3ccccc3S2(=O)=O)cc1` it was 691 nM; in that of `C=CC(=O)Nc1ccc(Nc2nc(NC3CCC(N(C)C)CC3)nc3c2ncn3C(C)C)cc1` (configuration not stated), 593 nM; in that of `O=C(Nc1nc(-c2ccc(F)c(F)c2)cs1)c1ccc(OCC2CCCO2)cc1` (configuration not stated), > 80000 nM (inactive).
On the same count and under the same terms, the result for `Cc1ccc(-c2csc(NC(=O)C3CCN(S(=O)(=O)c4cccs4)CC3)n2)cc1` reads > 80000 nM (inactive); that for `O=C(CCl)N1CCCC1c1ccc2c(c1)OCCO2` (configuration not stated), 478 nM; that for `COc1ccc(CN(C)c2ccc(S(=O)(=O)N3CCN(C)CC3)cc2[N+](=O)[O-])cc1OC`, > 80000 nM (inactive).
The same measure, in the same setting: the result for `Cc1nn(-c2ccccc2)c(C)c1/C=N/NC(=O)c1cc(-c2cccs2)[nH]n1` reads 21500 nM (inactive); that for `C=CCn1c(C)cc(C(=O)CN2C(=O)c3ccccc3S2(=O)=O)c1C`, 656 nM; that for `Cc1cc(N2CCN(c3nc4ccccc4s3)CC2)n2ncnc2n1`, > 80000 nM (inactive).
Consider `COc1ccccc1C(=O)Nc1nc(-c2ccc(S(=O)(=O)N3CCOCC3)cc2)cs1`, for which, in assay [2], the IC50 is 7170 nM.
Still for that read-out and setting: in the case of `Cc1ccc(C(=O)Nc2cccc(C(F)(F)F)c2)cc1NC(=O)c1ccno1` it was 4090 nM.
